Test results reported in PubChem BioAssay (NCI).
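These data come from cells grown in 96-well plates and exposed to compound for 48 hours at five concentrations. GI50 is the concentration that inhibits growth by half. The concentration for full growth arrest is given as TGI.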

How the values were obtained:
Assay in all cases: NCI tumour cell line growth inhibition, 48 h
[1] = tested on: CCRF-CEM leukemia
[2] = tested on: HCT-116 colon
[3] = tested on: K-562 leukemia
[4] = tested on: MALME-3M melanoma
[5] = tested on: MOLT-4 leukemia
[6] = tested on: NCI-H522 lung
[7] = tested on: OVCAR-5 ovarian
[8] = tested on: SF-295 CNS
[9] = tested on: SN12C renal
[10] = tested on: DU-145 prostate

| SMILES | TGI [1] [µM] | TGI [2] [µM] | TGI [3] [µM] | TGI [4] [µM] | TGI [5] [µM] | TGI [6] [µM] | TGI [7] [µM] | TGI [8] [µM] | TGI [9] [µM] | GI50 [1] [nM] | GI50 [2] [nM] | GI50 [3] [nM] | GI50 [4] [µM] | GI50 [5] [µM] | GI50 [6] [µM] | GI50 [9] [µM] | GI50 [7] [µM] | GI50 [8] [nM] | GI50 [10] [µM] | TGI [10] [µM] |
| --- | --- | --- | --- | --- | --- | --- | --- | --- | --- | --- | --- | --- | --- | --- | --- | --- | --- | --- | --- | --- |
| NS(=O)(=O)c1ccc(NC(=O)c2cccc3c(=O)c4ccccc4[nH]c23)cc1 | > 100 | > 100 | > 100 | 94.8 | > 100 | 65.4 | > 100 | > 100 | > 100 |  |  |  |  |  |  |  |  |  |  |  |
| Cc1ccc(-c2nc(C(Cl)Cl)n3nc(-c4ccccc4)cc3n2)cc1 | > 100 | 0.712 | > 100 | > 100 | > 100 | > 100 |  |  | > 100 | > 100000 | 258 | 1070 | > 100 | > 100 | > 100 | > 100 |  |  |  |  |
| CC(C)(C)C1(O)Cc2ccccc2C(=O)O1 (configuration not stated) | > 100 | > 100 | > 100 | > 100 | > 100 | > 100 | > 100 | > 100 | > 100 |  |  |  |  |  |  |  |  |  |  |  |
| CCOC(=O)[C@@H](C)C[C@H](Cc1ccccc1)NC(=O)c1csc([C@@H](C[C@H](C(C)C)N(C)C(=O)[C@@H](NC(=O)[C@H]2CCCCN2C)C(C)(C)C)OC(C)=O)n1 | > 16.7 |  | > 16.7 | > 16.7 | > 16.7 | 0.0644 | > 16.7 | 0.0918 | > 16.7 | < 1.67 | < 1.67 | < 1.67 | < 0.00167 | 0.00217 | < 0.00167 | 0.00307 | < 0.00167 | < 1.67 |  |  |
| CCCS(=O)(=O)c1nc(NC2CC2)cc(-c2ccc3c(ccn3C3CC(C)(C)NC(C)(C)C3)c2)n1 | 4.8 | 3.22 | 2.48 |  | 4.57 |  |  | 3.47 | 3.8 | 2020 | 1680 | 777 |  | 2.02 |  | 1.88 |  | 1820 | 1.71 | 3.19 |
| N#Cc1c(N)c(C(=O)O)nn(-c2cccc(C(F)(F)F)c2)c1=O | > 100 | > 100 | > 100 | > 100 | > 100 | > 100 | > 100 | > 100 | > 100 |  |  |  |  |  |  |  |  |  |  |  |
| Oc1c2c(c(O)c3ccccc13)=N[C@@H](c1ccccc1)[C@H](c1ccccc1)N=2 | > 100 | > 100 | > 100 | > 100 | > 100 | > 100 | > 100 | > 100 | > 100 |  |  |  |  |  |  |  |  |  |  |  |
| CN(C)c1nc(-c2cccs2)n2nc(-c3ccc(Cl)cc3)cc2n1 | > 100 | > 100 | > 100 |  | > 100 | > 100 | > 100 | > 100 | > 100 | > 100000 | 2430 | > 100000 |  | > 100 | > 100 | > 100 | > 100 | 2490 | > 100 | > 100 |
| COc1ccc2c(c1)C=CC(C#N)N2C(=O)c1ccccc1 (configuration not stated) | > 100 | > 100 | > 100 |  | > 100 | 0.188 | > 100 | > 100 | > 100 | < 10 | < 10 | < 10 |  | < 0.01 | < 0.01 | < 0.0119 |  | < 10 | < 0.01 | > 100 |
| Cc1c(C(=O)NN)nnn1-c1ccnc2c(C(F)(F)F)cccc12 | > 100 | > 100 | > 100 |  | > 100 | > 100 | > 100 | > 100 | > 100 | > 100000 | > 100000 | > 100000 |  | > 100 | > 100 | 76.5 | > 100 | > 100000 | > 100 | > 100 |
| CCOc1cccc2nc3cccc(C(=O)NCCN(C)C)c3nc12 |  | 2.37 | 2.62 | 2.42 | 0.746 | > 100 | 5.28 |  | 3.59 |  |  |  |  |  |  |  |  |  |  |  |
| c1ccc2c(c1)N=C(c1cccc3ccccc13)CC(c1cccc3ccccc13)S2 (configuration not stated) | 4.67 | 12.9 | 6.32 | 28.7 | 5.15 | 8.44 | 16.8 | 27.2 | 15.9 |  |  |  |  |  |  |  |  |  |  |  |
| NC(N)=N/N=C/c1c(-c2ccccn2)nc2sc(Cl)cn12 |  | 17.3 | 13.8 |  |  | 15.3 | 12.6 | 13.4 | 13.3 |  | 8360 | 3400 |  |  | 7.86 | 6.84 | 6.3 | 6930 | 7.68 | 14.4 |
| CN(C)C(=S)/N=c1\ss/c(=N\S(=O)(=O)c2ccccc2)n1-c1ccccc1 | > 100 |  | > 100 | > 100 | > 100 | > 100 | > 100 | > 100 | > 100 |  |  |  |  |  |  |  |  |  |  |  |
| COc1ccc(C(=O)C(C(=O)CCC(=O)Nc2cccc(C(F)(F)F)c2)c2ccccc2)cc1 (configuration not stated) | > 100 | > 100 | > 100 | > 100 | > 100 | > 100 | > 100 | > 100 | > 100 |  |  |  |  |  |  |  |  |  |  |  |
| COc1ccc(C2=NC(C)(C)CO2)cc1 | > 100 | > 100 | > 100 | > 100 |  |  | > 100 | > 100 | > 100 |  |  |  |  |  |  |  |  |  |  |  |
| COc1ccc(-c2cc(-c3cc(Cl)ccc3Cl)nc3nc(=S)[nH]c(N)c23)cc1 | > 100 | 28.4 |  |  | > 100 | > 100 | 51.4 | 46.5 | 65.7 | 26600 | 15100 |  |  | 6.36 | 28.2 | 19.1 | 20.1 | 17100 | 48.8 | > 100 |
| c1cc[c]([Sn]([S]c2cccc3cccnc23)([c]2ccccc2)[c]2ccccc2)cc1 | 0.0744 | 0.039 |  |  |  |  |  | 0.144 | 0.161 | 15.8 | 16.1 |  |  |  |  | 0.0326 |  | 46.2 |  |  |
